Data reported in publication PMC9046217, “L-tyrosine-bound ThiH structure reveals C–C bond break differences within radical SAM aromatic amino acid lyases” (Nature Communications, 2022).

Legend:
[1] = target: T1, TcThiH (2-iminoacetate synthase ThiH) (Thermosinus carboxydivorans, UniProt A1HPQ5); assay: X-ray crystal structure, […] Å; format: binding; settings: with L-tyrosine, 5'-deoxyadenosine; bound to the [4Fe-4S] cluster; pH 6.5, anaerobic; SAM cleavage product mimic
T1 construct: gene TcarDRAFT_1903; full length, N-terminal Strep-tag kept (MWSHPQFEKA-SGTFYDVIEDYRHFDF...YKDWQAL, 377 residues printed; printed DNA encodes a His6 tag instead); E. coli BL21(DE3) with isc operon and metK; [4Fe-4S] reconstituted; monomer
T1 sequence (A1HPQ5 entry or part of it): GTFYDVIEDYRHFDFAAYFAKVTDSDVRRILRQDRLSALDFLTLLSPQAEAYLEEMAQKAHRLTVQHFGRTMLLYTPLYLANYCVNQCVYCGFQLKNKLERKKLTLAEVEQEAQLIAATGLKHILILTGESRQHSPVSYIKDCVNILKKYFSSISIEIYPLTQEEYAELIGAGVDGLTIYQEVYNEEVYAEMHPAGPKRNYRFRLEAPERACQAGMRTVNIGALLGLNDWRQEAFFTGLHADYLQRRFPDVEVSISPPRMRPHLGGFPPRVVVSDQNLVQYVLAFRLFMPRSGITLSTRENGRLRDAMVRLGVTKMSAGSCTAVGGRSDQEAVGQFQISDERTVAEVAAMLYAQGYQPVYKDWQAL

[2] = target: 2-iminoacetate synthase ThiH from Thermosinus carboxydivorans (Thermosinus carboxydivorans); assay: SEC; preparative gel filtration, HiLoad 16/600 S200 prep-grade column, buffer B (50 mM Tris pH 8, 100 mM NaCl), anaerobic

| Compound | X-ray crystal structure, 1.27 Å [1] | stoichiometry N [2] |
| --- | --- | --- |
| CSCC[C@H](N)C(=O)O [L-methionine] | L-methionine bound to the radical SAM [Fe4S4]-cluster and L-tyrosine (Fig. 2b) | – |
| 2-iminoacetate synthase ThiH from Thermosinus carboxydivorans (enzyme) | – | 2 |
